Results from publication PMC5449446, “Metabolic Value Chemoattractants Are Preferentially Recognized at Broad Ligand Range Chemoreceptor of Pseudomonas putida KT2440” (Frontiers in Microbiology, 2017).

Experiments:
Tar-LBD = system: Tar-LBD; set-up: method as in Milligan and Koshland, 1993; conditions: estimated; ref Milligan and Koshland, 1993; cited from earlier work
McpP = molecular target: McpP; set-up: method as in ref (6) (a number printed in a supplementary file, which may have a reference list of its own: not looked up in the article's list); conditions: ITC, purified recombinant LBD; ref (6); cited from earlier work
McpS = molecular target: McpS; set-up: method as in ref (7-9) (a number printed in a supplementary file, which may have a reference list of its own: not looked up in the article's list); conditions: ITC, purified recombinant LBD; ref (7-9); cited from earlier work
MCP2983 = system: MCP2983; set-up: method as in Ni et al., 2015; conditions: ref Ni et al., 2015; cited from earlier work
PcaY_PP-LBD = molecular target: T1, PcaY_PP-LBD (Pseudomonas putida, UniProt Q88JK6); experiment: biochemical; type: binding, Pseudomonas putida KT2440; conditions: ITC at 25°C, 25 μM protein, One Binding Site model; means and SD of three experiments
T1 construct: His-tag (from the pET28b vector; inferred from NdeI/BamHI cloning and HisTrap purification) (N); made in house; host or cells: Escherichia coli BL21 (DE3)
Description: Experiments were carried out at 25°C using a VP-ITC titration calorimeter (Microcal Inc., Northampton, Massachusetts). […] Obtained data were corrected with the heat changes measured for the injection of ligand into buffer. Data were normalized with the protein concentration (Bradford assay) and fitted with the “One Binding Site” model of the MicroCal version of the ORIGIN 7.0 software (OriginLab Corporation, Northampton, MA, United States), leaving all parameters floating.

[1] = molecular target: the molecule itself; experiment: AUC; sedimentation velocity with saturating quinate or shikimate (400 uM), 40,000 rpm, 10°C, analysis buffer (5 mM PIPES, 5 mM MES, 5 mM Tris-HCl, pH 8.0)
[2] = molecular target: the molecule itself; experiment: AUC; multi-speed, multi-wavelength sedimentation equilibrium, ligand-free protein, six concentrations 15-280 uM, 12,000, 14,000 and 18,000 rpm, 10°C, analysis buffer pH 8.0; global fit to a monomer-dimer self-association model (SEDPHAT); dimer to monomers

## N[C@@H](CC(=O)O)C(=O)O [aspartate]
Tar-LBD
  decrease of the dimer self-association constant, factor: around 100

## CC(=O)O [Acetate]
McpP
  Kd: 34 µM
McpS
  Kd: 574 µM

## O=C(O)/C=C(/CC(=O)O)C(=O)O [cis-aconitate]
MCP2983
  binding to recombinant LBD: recognized
PcaY_PP-LBD
  KD: did not show any binding

B1: PcaY_PP-LBD, recombinant ligand binding domain of the PcaY_PP (PP2643) chemoreceptor of Pseudomonas putida KT2440 (domain or fragment, UniProt Q88JK6 44-196, looked up)
chain: GSDQQITELDQTAHQSDRLNNALLMAIRSSANVSSGFIEQLGGHDESAGKRMALSVELNNKSQALVDEFVENAREPALRGLATELQATFAEYAKAVAGQREATRQRSLEQYFKVNSDAGNAMGRLQTLRQQLVTTLSERGQQIMLESDRRLAR
notes: Cloned NdeI/BamHI into pET28b with a stop codon in the reverse primer; No tag removal is described
[1]
  stoichiometry N: 2
[2]
  Kd: 57.5 µM
